Like-named read-outs stand apart in the source and are kept apart here.
Key:
NC/Nga mice = settings: cited from earlier work
[1] = in vivo
Experimental: In order to clarify the relationship between the amount of DGLA orally ingested in humans and the internal DGLA level, the amount of DGLA orally ingested was investigated by examination of the diet, and after drawing blood, the amount of DGLA in the serum phospholipids was determined. The subjects were eleven healthy males aged 60-70, and were asked to keep a diary of the content of their diets. From the diary, the amount ingested by each food material was determined for meat, eggs, and seafood known to contain DGLA, and using the DGLA content of each food material calculated from “Fourth revised [sequence] […] From the amount of DGLA ingested per week, the mean amount of DGLA ingested per day was calculated for each person.
On the other hand, blood was drawn the day after the last entry of the diary, and for the serum phospholipid fractions obtained, the fatty acid composition was analyzed according to a standard method. Thus, from the serum the lipid component extracted by the Folch method, a standard method, and the lipid was fractionated on a thin layer chromatography (the developing solution is hexane/diethyl ether=7/3) to obtain the phospholipid fraction. […] The fatty acid methyl ester mixture was analyzed by a capillary gas chromatography to obtain DGLA (% by weight) in the total fatty acids in the serum phospholipid.

eosinophil migration = settings: guinea pigs, cited from earlier work

Question: For `CC/C=C\C/C=C\C/C=C\CCCCCCCC(=O)O` [ALA, α-linolenic acid], which “prevention of atopic dermatitis (correction of dermatitis symptoms and blood IgE)” value (NC/Nga mice; same mouse model, diet containing a large amount of ALA, exact dose not known) is on record?
Answer: no effect of preventing atopic dermatitis

Question: Which “amount of DGLA required to increase DGLA in serum phospholipid about 3% by weight” value [1] does the source give for `CCCCC/C=C\C/C=C\C/C=C\CCCCCCC(=O)O` [DGLA, dihomo-γ-linolenic acid] here?
Answer: about 100 mg per day

Question: What about the “increase of DGLA in the serum phospholipid with each increase of about 32 mg in the amount of DGLA ingested” value [1] of the same compound?
Answer: 1 % by weight

Question: With `CC/C=C\C/C=C\C/C=C\C/C=C\C/C=C\C/C=C\CCC(=O)OCC` [DHA ethylester] as the compound, how does the “eosinophil migration in the delayed type allergy” value (eosinophil migration; intraperitoneal administration of 50 mg) read?
Answer: can inhibit eosinophil migration

Question: Which “eosinophil migration in the delayed type allergy” value (eosinophil migration; intraperitoneal administration of 100 mg) does the source give for `CC/C=C\C/C=C\C/C=C\C/C=C\C/C=C\CCCC(=O)OCC` [EPA ethylester] here?
Answer: can inhibit eosinophil migration

Question: Which “formation of atopic dermatitis and IgE production” value (NC/Nga mice; NC/Nga mice, oral ingestion about 1250 mg/kg/day) does the source give for `CCCCC/C=C\C/C=C\C/C=C\CCCCC(=O)O` [GLA, γ-linolenic acid] here?
Answer: effects of inhibiting the formation of atopic dermatitis and IgE production

From patent publication US10342773B2, “Composition containing dihomo-γ-linolenic acid (DGLA) as the active ingredient” (SUNTORY HOLDINGS LIMITED, priority 2005, dated 2019)
